# Reference: PubChem BioAssay (NCI)
#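 Where inhibition never reached the appropriate level, the endpoint shown equals the highest concentration tested. Otherwise, values were interpolated linearly from a five-concentration, 48-hour dose response in 96-well plates. TGI is the concentration that stops growth completely.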
# Legend:
# Test in all cases: NCI tumour cell line growth inhibition, 48 h
# [1] = test system: 786-0 renal
# [2] = test system: A498 renal
# [3] = test system: A549 NSCLC
# [4] = test system: ACHN renal
# [5] = test system: BT-549 breast
# [6] = test system: CAKI-1 renal
# [7] = test system: CCRF-CEM leukemia
# [8] = test system: COLO 205 colon
# [9] = test system: DU-145 prostate
# [10] = test system: HCC-2998 colon
# [11] = test system: HCT-116 colon
# [12] = test system: HCT-15 colon
# [13] = test system: HL-60(TB) leukemia
# [14] = test system: HOP-62 NSCLC
# [15] = test system: HOP-92 NSCLC
# [16] = test system: HS 578T breast
# [17] = test system: HT29 colon
# [18] = test system: IGROV1 ovarian
# [19] = test system: K-562 leukemia
# [20] = test system: KM12 colon
# [21] = test system: LOX IMVI melanoma
# [22] = test system: MALME-3M melanoma
# [23] = test system: MCF7 breast
# [24] = test system: MDA-MB-231 breast
# [25] = test system: MDA-MB-435
# [26] = test system: MDA-N
# [27] = test system: MOLT-4 leukemia
# [28] = test system: NCI-H226 lung
# [29] = test system: NCI-H23 lung
# [30] = test system: NCI-H460 lung
# [31] = test system: NCI-H522 lung
# [32] = test system: NCI/ADR-RES ovarian
# [33] = test system: OVCAR-3 ovarian
# [34] = test system: OVCAR-4 ovarian
# [35] = test system: OVCAR-5 ovarian
# [36] = test system: OVCAR-8 ovarian
# [37] = test system: PC-3 prostate
# [38] = test system: RPMI-8226 leukemia
# [39] = test system: RXF 393 renal
# [40] = test system: SF-268 CNS
# [41] = test system: SF-295 CNS
# [42] = test system: SF-539 CNS
# [43] = test system: SK-MEL-2 melanoma
# [44] = test system: SK-MEL-28 melanoma
# [45] = test system: SK-MEL-5 melanoma
# [46] = test system: SK-OV-3 ovarian
# [47] = test system: SN12C renal
# [48] = test system: SNB-75 CNS
# [49] = test system: SR leukemia
# [50] = test system: SW-620 colon
# [51] = test system: T-47D breast
# [52] = test system: TK-10 renal
# [53] = test system: U251 CNS
# [54] = test system: UACC-257 melanoma
# [55] = test system: UACC-62 melanoma
# [56] = test system: UO-31 renal
# [57] = test system: DLD-1 colon
# [58] = test system: DMS 114 small cell lung
# [59] = test system: DMS 273 small cell lung
# [60] = test system: EKVX NSCLC
# [61] = test system: KM20L2 colon
# [62] = test system: LXFL 529 NSCLC
# [63] = test system: M14 melanoma
# [64] = test system: SNB-19 CNS
# [65] = test system: SNB-78 CNS
# [66] = test system: M19-MEL melanoma
# [67] = test system: XF 498 CNS
structure (smiles),measurement,setting,value
CCCCCn1c(=O)c2c(=O)[nH][nH]c2c2ccccc21,TGI,[1],> 100 µM
same,TGI,[2],> 100 µM
same,TGI,[3],> 100 µM
same,TGI,[4],> 100 µM
same,TGI,[5],> 100 µM
same,TGI,[6],> 100 µM
same,TGI,[7],> 100 µM
same,TGI,[8],> 100 µM
same,TGI,[9],> 100 µM
same,TGI,[10],> 100 µM
same,TGI,[11],> 100 µM
same,TGI,[12],> 100 µM
same,TGI,[13],> 100 µM
same,TGI,[14],> 100 µM
same,TGI,[15],> 100 µM
same,TGI,[16],> 100 µM
same,TGI,[17],> 100 µM
same,TGI,[18],> 100 µM
same,TGI,[19],> 100 µM
same,TGI,[20],> 100 µM
same,TGI,[21],> 100 µM
same,TGI,[22],> 100 µM
same,TGI,[23],> 100 µM
same,TGI,[24],> 100 µM
same,TGI,[25],> 100 µM
same,TGI,[26],> 100 µM
same,TGI,[27],> 100 µM
same,TGI,[28],> 100 µM
same,TGI,[29],> 100 µM
same,TGI,[30],> 100 µM
same,TGI,[31],> 100 µM
same,TGI,[32],> 100 µM
same,TGI,[33],> 100 µM
same,TGI,[34],> 100 µM
same,TGI,[35],> 100 µM
same,TGI,[36],> 100 µM
same,TGI,[37],> 100 µM
same,TGI,[38],> 100 µM
same,TGI,[39],> 100 µM
same,TGI,[40],> 100 µM
same,TGI,[41],> 100 µM
same,TGI,[42],> 100 µM
same,TGI,[43],> 100 µM
same,TGI,[44],> 100 µM
same,TGI,[45],> 100 µM
same,TGI,[46],> 100 µM
same,TGI,[47],> 100 µM
same,TGI,[48],> 100 µM
same,TGI,[49],> 100 µM
same,TGI,[50],> 100 µM
same,TGI,[51],> 100 µM
same,TGI,[52],> 100 µM
same,TGI,[53],> 100 µM
same,TGI,[54],> 100 µM
same,TGI,[55],> 100 µM
same,TGI,[56],> 100 µM
CCCCc1c2c(nc3c1CCc1cc4cc5c(nc4nc1-3)-c1nc3c(c(CCCC)c1CC5)CCC/C3=C\c1ccccc1)/C(=C/c1ccccc1)CCC2,TGI,[1],> 100 µM
same,TGI,[3],> 100 µM
same,TGI,[4],> 100 µM
same,TGI,[7],> 100 µM
same,TGI,[8],> 100 µM
same,TGI,[57],> 100 µM
same,TGI,[58],> 100 µM
same,TGI,[59],> 100 µM
same,TGI,[60],> 100 µM
same,TGI,[10],> 100 µM
same,TGI,[11],> 100 µM
same,TGI,[12],> 100 µM
same,TGI,[13],> 100 µM
same,TGI,[14],> 100 µM
same,TGI,[17],> 100 µM
same,TGI,[18],> 100 µM
same,TGI,[19],> 100 µM
same,TGI,[20],> 100 µM
same,TGI,[61],> 100 µM
same,TGI,[21],> 100 µM
same,TGI,[62],> 100 µM
same,TGI,[63],> 100 µM
same,TGI,[22],> 100 µM
same,TGI,[27],> 100 µM
same,TGI,[28],> 100 µM
same,TGI,[29],> 100 µM
same,TGI,[30],> 100 µM
same,TGI,[31],> 100 µM
same,TGI,[33],> 100 µM
same,TGI,[36],> 100 µM
same,TGI,[38],> 100 µM
same,TGI,[39],> 100 µM
same,TGI,[40],> 100 µM
same,TGI,[41],> 100 µM
same,TGI,[42],> 100 µM
same,TGI,[44],> 100 µM
same,TGI,[46],> 100 µM
same,TGI,[47],> 100 µM
same,TGI,[64],> 100 µM
same,TGI,[48],> 100 µM
same,TGI,[65],> 100 µM
same,TGI,[49],> 100 µM
same,TGI,[50],> 100 µM
same,TGI,[52],> 100 µM
same,TGI,[53],> 100 µM
same,TGI,[54],> 100 µM
same,TGI,[55],> 100 µM
same,TGI,[56],> 100 µM
Cc1cc(C)nc(NS(=O)(=O)c2ccc(NC(=O)c3cccn4c(=O)c5ccccc5nc34)cc2)n1,TGI,[1],> 100 µM
same,TGI,[3],> 100 µM
same,TGI,[4],> 100 µM
same,TGI,[7],> 100 µM
same,TGI,[8],> 100 µM
same,TGI,[57],> 100 µM
same,TGI,[59],> 100 µM
same,TGI,[60],99.7 µM
same,TGI,[10],> 100 µM
same,TGI,[11],> 100 µM
same,TGI,[12],> 100 µM
same,TGI,[13],44.1 µM
same,TGI,[14],> 100 µM
same,TGI,[17],> 100 µM
same,TGI,[18],> 100 µM
same,TGI,[19],> 100 µM
same,TGI,[20],> 100 µM
same,TGI,[61],> 100 µM
same,TGI,[21],91.8 µM
same,TGI,[62],> 100 µM
same,TGI,[63],> 100 µM
same,TGI,[66],> 100 µM
same,TGI,[27],> 100 µM
same,TGI,[28],97.3 µM
same,TGI,[29],> 100 µM
same,TGI,[30],> 100 µM
same,TGI,[31],42.6 µM
same,TGI,[34],68.3 µM
same,TGI,[35],> 100 µM
same,TGI,[36],85.2 µM
same,TGI,[39],67.4 µM
same,TGI,[40],> 100 µM
same,TGI,[41],> 100 µM
same,TGI,[42],> 100 µM
same,TGI,[43],> 100 µM
same,TGI,[44],> 100 µM
same,TGI,[45],> 100 µM
same,TGI,[47],> 100 µM
same,TGI,[64],> 100 µM
same,TGI,[48],> 100 µM
same,TGI,[65],> 100 µM
same,TGI,[49],> 100 µM
same,TGI,[50],> 100 µM
same,TGI,[52],> 100 µM
same,TGI,[53],> 100 µM
same,TGI,[55],51.9 µM
same,TGI,[56],74.7 µM
same,TGI,[67],> 100 µM
Cc1nc2ccccc2c(=O)n1/N=C(\N=Nc1cccc(Cl)c1)c1ccccc1Cl,TGI,[1],> 100 µM
same,TGI,[3],> 100 µM
same,TGI,[6],> 100 µM
same,TGI,[57],> 100 µM
same,TGI,[59],> 100 µM
same,TGI,[60],> 100 µM
same,TGI,[11],> 100 µM
same,TGI,[12],> 100 µM
same,TGI,[14],> 100 µM
same,TGI,[15],58.5 µM
same,TGI,[17],> 100 µM
same,TGI,[19],3.73 µM
same,TGI,[61],> 100 µM
same,TGI,[21],> 100 µM
same,TGI,[63],> 100 µM
same,TGI,[66],> 100 µM
same,TGI,[29],> 100 µM
same,TGI,[30],> 100 µM
same,TGI,[31],> 100 µM
same,TGI,[36],> 100 µM
same,TGI,[38],> 100 µM
same,TGI,[39],55.2 µM
same,TGI,[41],71.5 µM
same,TGI,[42],89 µM
same,TGI,[45],> 100 µM
same,TGI,[46],62.8 µM
same,TGI,[47],> 100 µM
same,TGI,[50],> 100 µM
same,TGI,[52],> 100 µM
same,TGI,[53],> 100 µM
same,TGI,[55],> 100 µM
same,TGI,[56],> 100 µM
same,TGI,[67],3.91 µM
